Measured values as given in patent US11033516B1, “Combination therapies with disulfiram” (Spring Discovery, Inc., priority 2020, dated 2021).

Experiments:
[1] = test system: T-type calcium channels (T-channels); conditions: native T-currents; cited from earlier work
tyrosinase = conditions: read-out: IC50, reversible inhibitor of tyrosinase; cited from earlier work
Spodoptera litura larvae = conditions: cited from earlier work
[2] = test system: most gram-positive and some gram-negative bacteria; conditions: cited from earlier work
SAMP8 mice = conditions: intragastric, 4-month-old SAMP8 mice, 2 months; cited from earlier work
CYP2B6 = CYP2B6 (Homo sapiens, UniProt P20813); conditions: cited from earlier work
CYP3A4 = CYP3A4 (Homo sapiens, UniProt P08684); conditions: cited from earlier work
CYP2C8 = CYP2C8 (Homo sapiens, UniProt P10632); conditions: cited from earlier work
CYP2C9 = CYP2C9 (Homo sapiens, UniProt P11712); conditions: cited from earlier work
CYP2C19 = CYP2C19 (Homo sapiens, UniProt P33261); conditions: cited from earlier work
human SIRT1 = human SIRT1 (Homo sapiens, UniProt Q96EB6); conditions: read-out: IC50, inhibition of human SIRT1; cited from earlier work
human SIRT2 = human SIRT2 (Homo sapiens, UniProt Q8IXJ6); conditions: read-out: IC50, inhibition of human SIRT2; cited from earlier work
[3] = target: fibroblast growth factor receptor 1 (FGFR1) (Homo sapiens, UniProt P11362); conditions: cited from earlier work
FGFR2 = FGFR2 (Homo sapiens, UniProt P21802); conditions: cited from earlier work
SV-129 mice = conditions: 450 mg/kg during a 15-minute period, after chronic simvastatin 2 mg/kg s.c. daily for 14 days; cited from earlier work
[4] = target: N-methyl-D-aspartate receptors (NMDARs) (Homo sapiens, UniProt Q05586); conditions: read-out: KB, competitive antagonist for the glycine-binding site of NMDARs; cited from earlier work
[5] = 510 mg/day, patients, cited from earlier work
S. aureus = conditions: cited from earlier work
most molds = conditions: for most molds; cited from earlier work
[6] = static toxicity tests; cited from earlier work
HSV-1 = conditions: cited from earlier work
[7] = test system: vesicular stomatitis virus (VSV); conditions: cited from earlier work
poliovirus = conditions: cited from earlier work
Yeast-made GLUT1 = target: T1, Yeast-made GLUT1 (Rattus norvegicus, UniProt P11167); conditions: cited from earlier work
T1 construct: host or cells: yeast

Human erythrocyte GLUT1 = target: T2, Human erythrocyte GLUT1 (Homo sapiens, UniProt P11166); conditions: cited from earlier work
T2 construct: Human erythrocyte GLUT1; from tissue; host or cells: human erythrocytes

[8] = test system: carrageenan-induced edema and nociception; conditions: 25, 50 or 100 mg/kg, i.p., immediately and 2 h after injection of carrageenan; cited from earlier work
[9] = test system: fever induced by lipopolysaccharide (LPS); conditions: 50 or 100 mg/kg, i.p., 0 and 2 h, rats; cited from earlier work
COX-2 = COX-2 (Homo sapiens, UniProt P35354); conditions: read-out: IC50, inhibition of COX-2 activity; cited from earlier work
TRPM8 = TRPM8 (Homo sapiens, UniProt Q7Z2W7); conditions: read-out: EC50, agonist of TRPM8; cited from earlier work
hERG channel = hERG channel (Homo sapiens, UniProt Q12809); conditions: read-out: IC50, hERG channel blocker; cited from earlier work
THP1 HMGB1 Lucia cells = test: Pyroptosis inhibition luciferase assay (LPS + nigericin, HMGB1 luciferase reporter, QUANTI-Luc); conditions: 1 μg/ml LPS 3 h, then 10 μM nigericin 3 h
[10] = test system: fibroblasts, peripheral blood mononuclear cells (PBMCs), myoblasts; test: Reversal of aging (reducing predicted age) in cultured young/old cells contacted with disulfiram plus potentiating ingredients; conditions: concentrations 0.000005 to 80 μM; potentiating ingredient up to 25 μM
[11] = test system: periodontopathic and cariogenic bacteria; conditions: cited from earlier work
β-glucosidase = conditions: cited from earlier work

Chain of CYP2B6 (P20813 whole entry): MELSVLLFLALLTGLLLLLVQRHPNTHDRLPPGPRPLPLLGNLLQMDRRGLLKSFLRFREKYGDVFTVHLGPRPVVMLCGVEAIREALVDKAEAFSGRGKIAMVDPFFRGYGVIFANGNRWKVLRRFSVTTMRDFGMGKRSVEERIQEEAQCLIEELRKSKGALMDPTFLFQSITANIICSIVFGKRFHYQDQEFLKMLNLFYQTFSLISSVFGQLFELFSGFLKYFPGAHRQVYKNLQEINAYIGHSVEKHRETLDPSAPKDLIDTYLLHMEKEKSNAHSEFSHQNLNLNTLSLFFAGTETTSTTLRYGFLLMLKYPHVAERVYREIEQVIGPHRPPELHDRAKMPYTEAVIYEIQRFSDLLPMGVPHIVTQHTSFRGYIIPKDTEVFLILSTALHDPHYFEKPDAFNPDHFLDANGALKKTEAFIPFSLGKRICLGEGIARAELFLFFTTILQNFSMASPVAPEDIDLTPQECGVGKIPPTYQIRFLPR
Chain of TRPM8 (Q7Z2W7 whole entry, species assumed): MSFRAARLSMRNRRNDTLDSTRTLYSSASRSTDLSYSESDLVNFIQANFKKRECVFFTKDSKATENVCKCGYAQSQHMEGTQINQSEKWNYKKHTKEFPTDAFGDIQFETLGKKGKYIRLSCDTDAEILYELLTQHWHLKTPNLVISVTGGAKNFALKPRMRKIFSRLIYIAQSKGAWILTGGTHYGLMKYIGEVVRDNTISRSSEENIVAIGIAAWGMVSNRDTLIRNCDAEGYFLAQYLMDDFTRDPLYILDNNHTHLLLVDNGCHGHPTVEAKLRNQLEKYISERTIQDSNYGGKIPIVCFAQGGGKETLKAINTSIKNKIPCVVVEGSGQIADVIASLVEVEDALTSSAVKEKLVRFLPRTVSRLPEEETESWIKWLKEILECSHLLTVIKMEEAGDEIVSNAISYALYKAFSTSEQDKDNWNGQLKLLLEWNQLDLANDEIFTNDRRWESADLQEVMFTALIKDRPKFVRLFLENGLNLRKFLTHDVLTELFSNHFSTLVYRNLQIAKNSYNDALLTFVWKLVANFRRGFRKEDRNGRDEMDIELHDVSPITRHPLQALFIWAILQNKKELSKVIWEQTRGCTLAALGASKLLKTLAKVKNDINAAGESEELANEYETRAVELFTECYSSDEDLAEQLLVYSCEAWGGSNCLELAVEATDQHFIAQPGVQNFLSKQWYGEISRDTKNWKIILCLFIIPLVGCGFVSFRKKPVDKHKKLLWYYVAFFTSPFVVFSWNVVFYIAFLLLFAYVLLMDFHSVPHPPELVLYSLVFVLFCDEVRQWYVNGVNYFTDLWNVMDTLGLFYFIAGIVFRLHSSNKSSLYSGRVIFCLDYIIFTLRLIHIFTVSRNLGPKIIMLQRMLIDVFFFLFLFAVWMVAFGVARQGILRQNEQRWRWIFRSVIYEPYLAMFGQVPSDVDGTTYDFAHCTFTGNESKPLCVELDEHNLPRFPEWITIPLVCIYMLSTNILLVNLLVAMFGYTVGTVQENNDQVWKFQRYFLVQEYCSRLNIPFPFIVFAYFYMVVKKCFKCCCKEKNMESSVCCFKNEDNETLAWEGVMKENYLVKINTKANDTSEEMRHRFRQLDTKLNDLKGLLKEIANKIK
Chain of CYP2C19 (P33261 whole entry): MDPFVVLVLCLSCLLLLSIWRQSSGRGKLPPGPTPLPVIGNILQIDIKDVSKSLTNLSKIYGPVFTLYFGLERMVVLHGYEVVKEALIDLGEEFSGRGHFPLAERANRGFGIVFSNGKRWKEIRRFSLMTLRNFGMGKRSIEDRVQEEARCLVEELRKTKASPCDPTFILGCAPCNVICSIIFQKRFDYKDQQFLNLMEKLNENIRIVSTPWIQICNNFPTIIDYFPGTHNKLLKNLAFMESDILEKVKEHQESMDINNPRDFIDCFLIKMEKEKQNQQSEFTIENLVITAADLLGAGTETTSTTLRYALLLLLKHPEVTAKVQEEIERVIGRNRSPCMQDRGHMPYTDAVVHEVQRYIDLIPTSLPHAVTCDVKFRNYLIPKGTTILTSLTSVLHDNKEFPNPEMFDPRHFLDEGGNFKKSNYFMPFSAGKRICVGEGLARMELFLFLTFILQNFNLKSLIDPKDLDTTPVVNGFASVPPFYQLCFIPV
T2 sequence (P11166 whole entry): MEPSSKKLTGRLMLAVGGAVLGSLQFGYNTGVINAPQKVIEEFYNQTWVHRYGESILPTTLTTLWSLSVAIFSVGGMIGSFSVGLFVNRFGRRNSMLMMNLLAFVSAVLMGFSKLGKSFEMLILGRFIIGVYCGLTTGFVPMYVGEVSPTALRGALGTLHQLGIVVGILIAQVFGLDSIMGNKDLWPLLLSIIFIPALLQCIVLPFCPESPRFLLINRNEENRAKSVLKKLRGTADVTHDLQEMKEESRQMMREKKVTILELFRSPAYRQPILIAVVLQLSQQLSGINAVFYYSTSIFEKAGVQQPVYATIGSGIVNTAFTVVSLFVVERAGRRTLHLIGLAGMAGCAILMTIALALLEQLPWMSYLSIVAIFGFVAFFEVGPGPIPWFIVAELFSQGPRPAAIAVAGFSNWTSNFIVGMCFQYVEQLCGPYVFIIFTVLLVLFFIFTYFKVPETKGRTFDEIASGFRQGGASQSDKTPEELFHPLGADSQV
Chain of human SIRT2 (Q8IXJ6 whole entry): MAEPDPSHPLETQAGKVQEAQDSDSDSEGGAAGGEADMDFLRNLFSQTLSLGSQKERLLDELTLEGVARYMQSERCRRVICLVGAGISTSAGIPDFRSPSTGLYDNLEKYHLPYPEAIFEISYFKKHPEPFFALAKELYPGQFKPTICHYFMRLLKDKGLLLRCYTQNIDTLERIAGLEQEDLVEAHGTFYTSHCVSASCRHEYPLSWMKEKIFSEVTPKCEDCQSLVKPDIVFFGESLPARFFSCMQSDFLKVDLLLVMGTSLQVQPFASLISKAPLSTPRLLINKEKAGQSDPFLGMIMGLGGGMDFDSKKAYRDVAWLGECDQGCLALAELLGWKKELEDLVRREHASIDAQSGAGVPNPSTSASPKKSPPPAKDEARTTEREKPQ
Chain of CYP2C8 (P10632 whole entry): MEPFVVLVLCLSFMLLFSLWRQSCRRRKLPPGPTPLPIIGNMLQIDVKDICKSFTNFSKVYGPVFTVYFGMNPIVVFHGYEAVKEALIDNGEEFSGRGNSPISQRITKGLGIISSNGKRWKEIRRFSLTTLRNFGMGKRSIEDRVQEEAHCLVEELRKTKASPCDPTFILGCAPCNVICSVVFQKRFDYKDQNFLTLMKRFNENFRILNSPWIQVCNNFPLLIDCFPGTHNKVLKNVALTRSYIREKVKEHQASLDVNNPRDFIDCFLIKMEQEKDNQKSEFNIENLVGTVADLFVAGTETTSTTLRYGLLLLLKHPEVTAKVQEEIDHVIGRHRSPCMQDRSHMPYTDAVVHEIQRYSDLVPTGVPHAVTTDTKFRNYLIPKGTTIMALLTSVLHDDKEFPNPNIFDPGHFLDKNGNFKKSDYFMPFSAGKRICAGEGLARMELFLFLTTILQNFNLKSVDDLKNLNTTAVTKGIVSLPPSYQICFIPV
Chain of human SIRT1 (Q96EB6 whole entry): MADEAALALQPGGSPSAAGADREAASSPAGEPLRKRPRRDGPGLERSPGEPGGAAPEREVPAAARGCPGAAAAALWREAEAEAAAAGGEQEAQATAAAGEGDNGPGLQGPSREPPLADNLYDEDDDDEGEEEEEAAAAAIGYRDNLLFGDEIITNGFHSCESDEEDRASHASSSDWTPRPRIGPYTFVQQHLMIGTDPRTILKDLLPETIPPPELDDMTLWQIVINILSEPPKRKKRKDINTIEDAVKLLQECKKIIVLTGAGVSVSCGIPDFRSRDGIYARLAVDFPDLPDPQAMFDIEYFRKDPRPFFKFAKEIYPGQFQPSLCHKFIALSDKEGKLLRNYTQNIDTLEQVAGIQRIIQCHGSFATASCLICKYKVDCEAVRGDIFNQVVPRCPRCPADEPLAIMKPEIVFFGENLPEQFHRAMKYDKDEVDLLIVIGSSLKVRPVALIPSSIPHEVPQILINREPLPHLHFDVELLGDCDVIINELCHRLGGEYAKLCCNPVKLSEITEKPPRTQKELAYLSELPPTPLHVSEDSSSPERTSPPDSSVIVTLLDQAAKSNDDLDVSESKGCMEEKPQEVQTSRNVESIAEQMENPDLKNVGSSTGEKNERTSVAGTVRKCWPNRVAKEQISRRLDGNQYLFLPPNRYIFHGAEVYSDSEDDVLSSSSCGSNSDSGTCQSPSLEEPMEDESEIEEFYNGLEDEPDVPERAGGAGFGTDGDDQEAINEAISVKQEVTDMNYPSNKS
Chain of fibroblast growth factor receptor 1 (FGFR1) (P11362 22-822, species assumed): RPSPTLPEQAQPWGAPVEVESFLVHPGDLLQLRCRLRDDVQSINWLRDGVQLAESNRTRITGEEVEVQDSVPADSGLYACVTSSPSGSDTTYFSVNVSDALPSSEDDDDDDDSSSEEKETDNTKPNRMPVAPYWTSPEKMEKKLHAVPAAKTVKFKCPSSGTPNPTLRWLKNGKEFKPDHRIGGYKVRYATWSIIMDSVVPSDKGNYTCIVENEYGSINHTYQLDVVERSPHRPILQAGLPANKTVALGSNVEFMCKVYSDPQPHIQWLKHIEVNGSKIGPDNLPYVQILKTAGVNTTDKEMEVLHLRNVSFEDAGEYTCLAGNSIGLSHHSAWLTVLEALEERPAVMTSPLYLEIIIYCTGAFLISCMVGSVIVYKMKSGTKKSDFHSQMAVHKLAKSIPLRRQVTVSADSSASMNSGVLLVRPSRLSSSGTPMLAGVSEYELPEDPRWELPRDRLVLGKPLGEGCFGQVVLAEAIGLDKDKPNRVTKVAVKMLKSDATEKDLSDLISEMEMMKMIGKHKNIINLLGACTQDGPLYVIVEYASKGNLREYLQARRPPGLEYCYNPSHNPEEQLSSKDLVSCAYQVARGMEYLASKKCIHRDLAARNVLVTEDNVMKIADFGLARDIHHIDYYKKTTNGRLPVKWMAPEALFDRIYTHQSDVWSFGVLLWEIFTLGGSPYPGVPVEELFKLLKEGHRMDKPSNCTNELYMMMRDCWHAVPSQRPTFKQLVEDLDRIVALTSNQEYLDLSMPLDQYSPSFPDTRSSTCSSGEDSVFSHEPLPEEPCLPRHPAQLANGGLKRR

Question: With `CCCCCCCCO` [1-Octanol] as the compound, how does the IC50 [1] read?
Answer: Its IC50 is 4 µM.

Question: For `O=C(O)CCC(=O)C(=O)O` [2-Ketoglutaric acid], which IC50 (tyrosinase) is on record?
Answer: The IC50 was 15000 µM.

Question: For `CCCC=C1OC(=O)c2ccccc21` [3-Butylidenephthalide], which LC50 larvicidal activity (Spodoptera litura larvae) is on record?
Answer: The LC50 larvicidal activity was “activity (LC50 of 1.56 mg/g for Spodoptera”.

Question: Which “IC50, inhibition of most gram-positive and some gram-negative bacteria” value [2] does the source give for `O=C(O)c1ccc(O)cc1` [4-Hydroxybenzoic acid] here?
Answer: The value was “of 160 μg/mL”.

Question: For `CCCCC1OC(=O)c2ccccc21` (stereo not shown) [Butylphthalide], which “loss of choline acetyltransferase (ChAT)-positive neurons in the medial septal nucleus and vertical limb of the diagonal band” value (SAMP8 mice) is on record?
Answer: Its value is “diagonal band in SAMP8 mice was slowed down,”.

Question: What about the “spatial learning and memory ability” value (SAMP8 mice) of the same compound?
Answer: The value was 2 months significantly improved spatial learning a.

Question: With `C[C@@H]1CC[C@H]2C(C)(C)[C@H]3C[C@@]12CC[C@@]3(C)O` [Cedrol] as the compound, how does the Ki (CYP2B6) read?
Answer: The Ki was 0.9 µM.

Question: What about the Ki (CYP3A4) of the same compound?
Answer: Its Ki is 3.4 µM.

Question: What about the “inhibitory effect on CYP2C8” value (CYP2C8) of the same compound?
Answer: Its value is “has weak inhibitory effect on CYP2C8,”.

Question: What about the “inhibitory effect on CYP2C9” value (CYP2C9) of the same compound?
Answer: The value was “has weak inhibitory effect on CYP2C8,”.

Question: And the “inhibitory effect on CYP2C19” value (CYP2C19)?
Answer: The value was “has weak inhibitory effect on CYP2C8,”.

Question: With `O=C1CCc2ccccc2O1` [Dihydrocoumarin] as the compound, how does the IC50 (human SIRT1) read?
Answer: Its IC50 is 208 µM.

Question: And the IC50 (human SIRT2)?
Answer: The IC50 was 295 µM.

Question: Which IC50 [3] does the source give for `COc1cc(/C=C/C(=O)O)ccc1O` [Ferulic acid (sodium)] here?
Answer: Its IC50 is 3.78 µM.

Question: And the IC50 (FGFR2)?
Answer: The IC50 was 12.5 µM.

Question: With `N=C(N)NCCC[C@H](N)C(=O)O` [L-Arginine] as the compound, how does the “hyperemia amplified and sustained” value (SV-129 mice) read?
Answer: Its value is “hyperemia (38%) and increases absolute brain”.

Question: For `N[C@@H](Cc1ccccc1)C(=O)O` [L-Phenylalanine], which Kb [4] is on record?
Answer: Its Kb is 573 µM.

Question: With `C[N+](C)(C)C[C@H](O)CC(=O)[O-]` [L-carnitine] as the compound, how does the “total time for dozing off during the daytime, calculated from the sleep logs” value ([5]; compared with placebo-treated periods) read?
Answer: Its value is “improved the total time for dozing off during the”.

Question: What about the serum acylcarnitine levels [5] of the same compound?
Answer: Its serum acylcarnitine levels is “(Levocarnitine) efficiently increased serum acyl-”.

Question: And the serum triglycerides concentration [5]?
Answer: Its serum triglycerides concentration is “carnitine levels, and reduced serum triglycerides”.

Question: With `CCCCCCCCCCCC(=O)O` [Lauric acid] as the compound, how does the “EC50 for S. aureus” value (S. aureus) read?
Answer: The value was 6 µg/mL.

Question: Which “MIC (minimum inhibitory concentration)” value (most molds) does the source give for `C[C@@H]1C/C=C/C=C/C=C/C=C/[C@H](O[C@@H]2O[C@H](C)[C@@H](O)[C@H](N)[C@@H]2O)C[C@@H]2O[C@](O)(C[C@@H](O)C[C@H]3O[C@@H]3/C=C/C(=O)O1)C[C@H](O)[C@H]2C(=O)O` [Natamycin] here?
Answer: Its value is “concentration) of less than 10 ppm for most molds”.

Question: With `CCCCCCCCC(=O)NCc1ccc(O)c(OC)c1` [Nonivamide] as the compound, how does the 4d-EC50 [6] read?
Answer: Its 4d-EC50 is “exhibits 4d-EC50 value of 5.1 mg/L in static”.

Question: For `CCCCCCCCOC(=O)c1cc(O)c(O)c(O)c1` [Octyl gallate], which “antiviral effect against HSV-1” value (HSV-1) is on record?
Answer: Its value is “Octyl gallate shows a marked antiviral effect”.

Question: What about the “antiviral effect against vesicular stomatitis virus (VSV)” value [7] of the same compound?
Answer: Its value is “Octyl gallate shows a marked antiviral effect”.

Question: And the “antiviral effect against poliovirus” value (poliovirus)?
Answer: Its value is “Octyl gallate shows a marked antiviral effect”.

Question: Which IC50 (Yeast-made GLUT1) does the source give for `O=C(CCc1ccc(O)cc1)c1c(O)cc(O)cc1O` [Phloretin] here?
Answer: The IC50 was 49 µM.

Question: And the IC50 (Human erythrocyte GLUT1)?
Answer: The IC50 was 61 µM.

Question: With `Cc1cc2nc3c(=O)[nH]c(=O)nc-3n(C[C@H](O)[C@H](O)[C@H](O)CO)c2cc1C` [Riboflavin] as the compound, how does the antinociceptive effect [8] read?
Answer: The antinociceptive effect was “antinociceptive effects. The antinociceptive effect”.

Question: What about the “fever induced by lipopolysaccharide (LPS)” value [9] of the same compound?
Answer: The value was 2 h) also inhibited the fever induced by lipopoly-.

Question: Which IC50 (COX-2) does the source give for `COc1cc(C=O)cc(OC)c1O` [Syringaldehyde] here?
Answer: The IC50 was 19.2 µM.

Question: Which EC50 (TRPM8) does the source give for `CCNC(=O)C1CC(C)CCC1C(C)C` (stereo not shown) [TRPM8 antagonist WS-3] here?
Answer: The EC50 was 3.7 µM.

Question: For `O=C(OC[C@H]1O[C@@H](OC(=O)c2cc(O)c(O)c(OC(=O)c3cc(O)c(O)c(O)c3)c2)[C@H](OC(=O)c2cc(O)c(O)c(OC(=O)c3cc(O)c(O)c(O)c3)c2)[C@@H](OC(=O)c2cc(O)c(O)c(OC(=O)c3cc(O)c(O)c(O)c3)c2)[C@@H]1OC(=O)c1cc(O)c(O)c(OC(=O)c2cc(O)c(O)c(O)c2)c1)c1cc(O)c(O)c(OC(=O)c2cc(O)c(O)c(O)c2)c1` [Tannic acid], which IC50 (hERG channel) is on record?
Answer: The IC50 was 3.4 µM.

Question: For `O=C/C=C/c1ccccc1` [cinnamaldehyde, (2E)-3-Phenyl-2-propenal], which “inhibition of pyroptosis (HMGB1 luciferase reporter in supernatant)” value (THP1 HMGB1 Lucia cells) is on record?
Answer: The value was “no effect”.

Question: What about the “ability to potentiate disulfiram in reversing aging of cells” value [10] of the same compound?
Answer: The value was “identified as a potentiating ingredient”.

Question: Which “antimicrobial activity against periodontopathic and cariogenic bacteria” value [11] does the source give for `CC1=CCC(C(C)(C)O)CC1` (stereo not drawn) [α-Terpineol] here?
Answer: The value was “Labill, exhibits strong antimicrobial activity”.

Question: For Rebaudioside A, which “IC 50 (Target: β-glucosidase)” value (β-glucosidase) is on record?
Answer: The value was “IC 50: 35.01 ug/mL”.
